The test system of this experiment is HBV. In words: HBV replication inhibition assay (BDNA assay) in HepG2.2.15 cells. It is filed as cell-based. Particulars: 6 days treatment, encapsidated HBV DNA in supernatant by branched DNA QuantiGene assay; for EC50: Hepatitis B virus, HepG2.2.15, 144 h. The text has this:
HBV replication inhibition by the compounds of this invention could be determined in cells infected or transfected with HBV, or cells with stably integrated HBV, such as HepG2.2.15 cells (Sells et al. 1987). In this example, HepG2.2.15 cells were maintained in cell culture medium containing 10% fetal bovine serum (FBS), Geneticin, L-glutamine, penicillin and streptomycin. HepG2.2.15 cells could be seeded in 96-well plates at a density of 40,000 cells/well and be treated with serially diluted compounds at a final DMSO concentration of 0.5% either alone or in combination by adding drugs in a checker box format. Cells were incubated with compounds for three days, after which medium was removed and fresh medium containing compounds was added to cells and incubated for another three days. At day 6, supernatant was removed and treated with DNase at 37° C. for 60 minutes, followed by enzyme inactivation at 75° C. for 15 minutes. Encapsidated HBV DNA was released from the virions and covalently linked HBV polymerase by incubating in lysis buffer (Affymetrix QS0010) containing 2.5 μg proteinase K at 50° C. for 40 minutes. HBV DNA was denatured by addition of 0.2 M NaOH and detected using a branched DNA (BDNA) QuantiGene assay kit according to manufacturer recommendation (Affymetrix). HBV DNA levels could also be quantified using qPCR, based on amplification of encapsidated HBV DNA extraction with QuickExtraction Solution (Epicentre Biotechnologies) and amplification of HBV DNA using HBV specific PCR probes that can hybridize to HBV DNA and a fluorescently labeled probe for quantitation. In addition, cell viability of HepG2.2.15 cells incubated with test compounds alone or in combination was determined by using CellTitre-Glo reagent according to the manufacturer protocol (Promega). The mean background signal from wells containing only culture medium was subtracted from all other samples, and percent inhibition at each compound concentration was calculated by normalizing to signals from HepG2.2.15 cells treated with 0.5% DMSO using equation E1. % inhibition=(DMSOave−Xi)/DMSOave×100% E1: where DMSOave is the mean signal calculated from the wells that were treated with DMSO control (0% inhibition control) and Xi is the signal measured from the individual wells. EC50 values, effective concentrations that achieved 50% inhibitory effect, were determined by non-linear fitting using Graphpad Prism software (San Diego, Calif.) and equation E2 Y=Y min+(Y max−Y min)/(1+10(Log EC50−X)×HillSlope) E2: […]
where Y represents percent inhibition values and X represents the logarithm of compound concentrations.
Selected compounds of the invention were assayed in the HBV replication assay (BDNA assay), as described above and a representative group of these active compounds is shown in Table 3. […] In Table 3, “A” represents 0.01<EC50<0.10; “B” represents 0.10≤EC50<0.50; and “C” represents 0.50≤EC50<1.0; (‘+’ indicates >50% activity at 10 μM).

As usually defined, the EC50 is the concentration needed to bring the measured effect to its halfway point. On to `Cc1cccc(NC(=O)N2Cc3c(C4CCCO4)n[nH]c3C[C@@H]2C)c1` (single isomer, unassigned) [970 D1], for which the EC50 lay within 100 to 500 nM.

Turning to `C[C@H]1Cc2[nH]nc(C3CCCC3)c2CN1C(=O)Nc1cccc(Br)c1` [927 S], the concentration for a half-maximal effect (EC50) lay in the range of 10 to 100 nM.

Consider `C[C@@H]1Cc2[nH]nc(C3CCCC3)c2CN1C(=O)Nc1ccc(F)c(C#N)c1` [930 R], for which the EC50 fell in the range of 10 to 100 nM.

With `C[C@H]1Cc2[nH]nc(C3CCCO3)c2CN1C(=O)Nc1ccnc(Br)c1F` (single isomer, unassigned) [968 D1], the concentration giving a half-maximal response (EC50) lay within 500 to 1000 nM.

Take `CC(C)(C)c1n[nH]c2c1CN(C(=O)Nc1cccc(Cl)c1)CC2` [Compound 515, 3-tert-butyl-N-(3-chlorophenyl)-1,4,6,7-tetrahydropyrazolo[4,3-c]pyridine-5-carboxamide]: the EC50 fell in the range of 100 to 500 nM.

With `O=C(Nc1ccc(F)c(Br)c1)N1CCc2[nH]nc(C34CCCC3C4)c2C1` (centres unmarked) [Compound 789], the EC50 was in the range of 10 to 100 nM.

Take `C=C(C)c1n[nH]c2c1CN(C(=O)Nc1cccc(Cl)c1)CC2` [Compound 336]: the EC50 lay within 10 to 100 nM.

In the case of `C[C@H]1Cc2[nH]nc(C3CCCO3)c2CN1C(=O)Nc1cccc(Br)c1` (single isomer, unassigned) [966 D1], the half-maximal effective concentration (EC50) lay in the range of 10 to 100 nM.

`O=C(Nc1cccc(Cl)c1)N1CCc2[nH]nc(Br)c2C1` [Compound 260]: the “HBV replication inhibition >50% at 10 μM (qualitative flag)” value is on record as “+ (‘+’ indicates >50% activity at 10 μM)”.

For the molecule `O=C(Nc1ccnc(Cl)c1F)N1CCc2[nH]nc(C34CCCC3C4)c2C1` (centres unmarked) [Compound 782], the EC50 fell in the range of 10 to 100 nM.

Turning to `O=C(Nc1ccc(F)c(Cl)c1)N1CCc2[nH]nc(C34CCCC3C4)c2C1` (centres unmarked) [Compound 787], the EC50 was in the range of 10 to 100 nM.

With `O=C(Nc1cccc(Br)c1)N1CCc2[nH]nc(C34CCCC3C4)c2C1` (centres unmarked) [Compound 785], the EC50 lay in the range of 10 to 100 nM.

Consider `O=C(Nc1ccnc(Br)c1F)N1CCc2[nH]nc(C3CCC3)c2C1` [Compound 664], for which the EC50 is 100 to 500 nM.

As for `O=C(Nc1cccc(Cl)c1)N1CCc2[nH]nc(C3CC3)c2C1` [Compound 440, N-(3-chlorophenyl)-3-cyclopropyl-1,4,6,7-tetrahydropyrazolo[4,3-c]pyridine-5-carboxamide], the EC50 was in the range of 100 to 500 nM.

For the molecule `Cc1cccc(NC(=O)N2Cc3c(C4CCCC4)n[nH]c3C[C@H]2C)c1` [933 R], the concentration giving a half-maximal response (EC50) was 10 to 100 nM.

For `C[C@H]1Cc2[nH]nc(C3CCCO3)c2CN1C(=O)Nc1cccc(Cl)c1` (single isomer, unassigned) [964 D1], the EC50 was 10 to 100 nM.

For `O=C(Nc1cccc(Cl)c1)N1CCc2[nH]nc(N3CCCC3)c2C1` [Compound 455, N-(3-chlorophenyl)-3-pyrrolidin-1-yl-1,4,6,7-tetrahydropyrazolo[4,3-c] pyridine-5-carboxamide], the EC50 lay within 100 to 500 nM.

In the case of `C[C@@H]1Cc2[nH]nc(C3CCCC3)c2CN1C(=O)Nc1cccc(Br)c1` [927 R], the concentration giving a half-maximal response (EC50) was in the range of 10 to 100 nM.

On to `O=C(Nc1cccc(Br)c1F)N1CCc2[nH]nc(C34CCCC3C4)c2C1` (centres unmarked) [Compound 784], for which the EC50 is 10 to 100 nM.

With `O=C(Nc1ccc(F)c(Cl)c1)N1CCc2[nH]nc(C3CCC3)c2C1` [Compound 665], the EC50 lay within 10 to 100 nM.

Turning to `C[C@H]1Cc2[nH]nc(C3CCCC3)c2CN1C(=O)Nc1ccc(F)c(Cl)c1` [932 S], the 50% effective concentration (EC50) fell in the range of 10 to 100 nM.

Take `Cc1cc(NC(=O)N2Cc3c(C4CCCC4)n[nH]c3C[C@H]2C)ccc1F` [931 R]: the 50% effective concentration (EC50) lay in the range of 10 to 100 nM.

As for `O=C(Nc1cccc(Cl)c1)N1CCc2[nH]nc(C3CCCC3)c2C1` [Compound 264, N-(3-chlorophenyl)-3-cyclopentyl-1,4,6,7-tetrahydro pyrazolo[4,3-c]pyridine-5-carboxamide], the concentration for a half-maximal effect (EC50) fell in the range of 10 to 100 nM.

Regarding `Cc1cc(NC(=O)N2Cc3c(C4CCCO4)n[nH]c3C[C@@H]2C)ccc1F` (some centres unmarked) [971 D2], the EC50 lay in the range of 100 to 500 nM.

For the molecule `Cc1cc(NC(=O)N2CCc3[nH]nc(C4CCC4)c3C2)ccc1F` [Compound 666], the EC50 is 10 to 100 nM.

Turning to `O=C(Nc1cccc(Cl)c1)N1CCc2[nH]nc(C3CC=CC3)c2C1` [Compound 693, N-(3-chlorophenyl)-3-cyclopent-3-en-1-yl-1,4,6,7-tetrahydropyrazolo[4,3-c]pyridine-5-carboxamide], the concentration for a half-maximal effect (EC50) was in the range of 10 to 100 nM.

With `O=C(Nc1cccc(Cl)c1)N1CCc2[nH]nc(C3(C(F)(F)F)CC3)c2C1` [Compound 700, N-(3-chlorophenyl)-3-[1-(trifluoromethyl)cyclopropyl]-1,4,6,7-tetrahydropyrazolo[4,3-c]pyridine-5-carboxamide], the 50% effective concentration (EC50) lay within 100 to 500 nM.

Consider `C[C@H]1Cc2[nH]nc(C3CCCC3)c2CN1C(=O)Nc1cccc(Cl)c1` [934 S], for which the concentration giving a half-maximal response (EC50) is 10 to 100 nM.

As for `O=C(Nc1cccc(Cl)c1)N1CCc2[nH]nc(C34CCCC3C4)c2C1` (centres unmarked) [Compound 546, 3-(1-bicyclo[3.1.0]hexanyl)-N-(3-chlorophenyl)-1,4,6,7-tetrahydropyrazolo[4,3-c]pyridine-5-carboxamide], the EC50 was in the range of 10 to 100 nM.

Consider `Cc1cccc(NC(=O)N2CCc3[nH]nc(C45CCCC4C5)c3C2)c1` (centres unmarked) [Compound 783], for which the half-maximal effective concentration (EC50) fell in the range of 10 to 100 nM.

As to `C=C(C)c1n[nH]c2c1CN(C(=O)Nc1cccc(Br)c1F)CC2` [Compound 548], the 50% effective concentration (EC50) lay within 10 to 100 nM.

Take `N#Cc1cc(NC(=O)N2CCc3[nH]nc(C4CCC4)c3C2)ccc1F` [Compound 668]: the half-maximal effective concentration (EC50) was 10 to 100 nM.

On to `Cc1cccc(NC(=O)N2CCc3[nH]nc(C4CCC4)c3C2)c1` [Compound 661], for which the EC50 is 100 to 500 nM.

As to `CC1Cc2[nH]nc(C3CCC3)c2CN1C(=O)Nc1cccc(C#N)c1F` (centres unmarked) [761 R], the EC50 was 100 to 500 nM.

In the case of `Cc1cc(NC(=O)N2Cc3c(C4CCCC4)n[nH]c3C[C@@H]2C)ccc1F` [931 S], the half-maximal effective concentration (EC50) fell in the range of 10 to 100 nM.

The record behind these values is patent publication US10544141B2, “Derivatives and methods of treating hepatitis B infections” (Novira Therapeutics, Inc., priority 2014, dated 2020).
